{
  "source": "patent US12600808B2",
  "about": "“Crosslinkable prepolymers for chemically stable polymer gels” (priority 2020, dated 2026)",
  "type_in_all_cases": "physicochemical",
  "key": {"[1]": {"assay": "Photopolymerization efficiency, gravimetric determination of the cured polymer mass", "conditions": "photopolymerization efficiency test per application example 5 with antioxidant", "protocol": "The photopolymerization efficiency was examined by gravimetric determination of the cured polymer mass: Solutions containing prepolymer prepared according to examples 5-7, 10 or 11 (15% w/w) and photoinitiator (0.1% w/w) were prepared in deionized water. 500 mg of the premixed solutions were loaded into a 2 mL polystyrene cuvette and irradiated for 60 s with a laser (X=405 nm, p=10 mW) from the side. The solid hydrogels were removed, wiped to remove residual liquid, and weighed. The ratio of solid, cure material to liquid, uncured material was calculated and used as a measure for the photopolymerization efficiency. The setup used is depicted in FIG. 2: 301 represents the polystyrene cuvette, 302 the liquid prepolymer composition, 303 the solidified hydrogel and 304 the laser beam.\nThe photopolymerization efficiency of the prepolymers PEG-DMA (prepared according to example 7), linker-containing PEG-dimethacrylates (example 5-7), PEG-DAAm (example 10), linker-containing PEG-diacrylamides (example 11) and 1OR5-Dimethacrylate (example 12) was compared according to application example 5: […]"}, "[2]": {"assay": "Antioxidant testing: accelerated aging of antioxidant-doped hydrogels in D2O, decomposition markers by NMR", "conditions": "antioxidant added to prepolymer formulation (BHT with 1% DMSO)", "excerpt": "The influence of different antioxidants on hydrogel stability was studied by doping prepolymer formulations with specified antioxidants prior to photopolymerization as described in application example 1, followed by accelerated aging experiments in heavy water (D20).\nDetection of decomposition was observed by NMR spectroscopy with the formation of decomposition markers, such as formic acid, in the liquid. This was quantified with the addition of an internal standard."}, "[3]": {"assay": "Retainment of antioxidants in hydrogel samples, leaching with weekly exchange of heavy water", "protocol": "The retainment properties of antioxidants were tested by preparing and aging antioxidant-doped samples according to application example 3. The heavy water the hydrogels samples were aged in was exchanged weekly, followed by testing of the heavy water. Detection of decomposition was observed by NMR spectroscopy with the formation of decomposition markers, such as formic acid, in the liquid. This was quantified with the addition of an internal standard.\nRetainment of BHT and sodium fenozan was studied according to […]."}},
  "data": [
    {"smiles": "CC(C)(C)c1cc(CCC(=O)[O-])cc(C(C)(C)C)c1O.[Na+]", "note": "[sodium fenozan]", "values": [
      {"measurement": "Reduction of polymerized mass in presence of antioxidant", "setting": "[1]", "result": "no reduction of polymerized masses was observed"},
      {"measurement": "Decomposition (decomposition marker such as formic acid) of hydrogel with antioxidant", "setting": "[2]", "result": "no decomposition was observed"},
      {"measurement": "Decomposition markers in leached solvent", "setting": "[3]; after 3 weeks of leaching", "result": 1.4, "unit": "mM"}
    ]},
    {"smiles": "Cc1cc(C(C)(C)C)c(O)c(C(C)(C)C)c1", "note": "[BHT]", "values": [
      {"measurement": "Reduction of polymerized mass in presence of antioxidant", "setting": "[1]", "result": "no reduction of polymerized masses was observed"},
      {"measurement": "Decomposition (decomposition marker such as formic acid) of hydrogel with antioxidant", "setting": "[2]", "result": "no decomposition was observed"},
      {"measurement": "Retainment of antioxidant in hydrogel (decomposition markers and antioxidant in leached solvent)", "setting": "[3]; leaching experiments over three weeks", "result": "lack of decomposition markers and antioxidant in the leached solvent"}
    ]}
  ]
}
